Test results published in patent US10954513B2, “RNA-guided transcriptional regulation and methods of using the same for the treatment of back pain” (UNIVERSITY OF UTAH RESEARCH FOUNDATION, priority 2015, dated 2021).

Tests used:
[1] = system: TNFR1; assay: Human NP cell CRISPRi: TNFR1 knockdown (qRT-PCR); assay type: cell-based; conditions: primary human NP cells
Description: Quantitative RT-PCR was performed to identify TNFR1 knockdown in these primary human NP cells. Additionally, flow-cytometry was performed to determine transduction efficiency in human NP cells.

[2] = system: TNFR1; assay: Guide RNA screening in HEK293T cells (qPCR), TNFR1; assay type: cell-based, human; conditions: HEK293T cells expressing dCas9-KRAB, 48 hours post transfection, relative to non-target gRNA
Excerpt: (§1) Using the UCSC genome browser (GRCh37/hg19), the 5-UTR and the promoter region, 1000 base pairs upstream were selected and input into the CRISPR design tool (crispr.mit.edu). This tool outputs 20 bp gRNAs that are followed on their 3′ end by the PAM sequence NGG, which is specific to the CRISPR-Cas9 system derived from Streptococcus pyogenes. Additionally, the CRISPR design tool scores the potential gRNA sequences based on the number of off-target sites they have and how many are within genes (e.g., higher score means less off-target sites). […]
(§2) Total RNA was harvested from cells using Purelink RNA mini kit (Ambion). […] Changes in gene expression were expressed as fold changes in mRNA expression relative to the nontarget control, and normalized to GAPDH mRNA expression, using the ΔΔCt method.
(§3) HEK293T cells stably expressing dCas9-KRAB GFP were seeded in 6-well plates at a density of 600,000 cells/well in DMEM-HG with 10% FBS. […] Subsequently each sample was then run through taqman qPCR using primers for TNFRSF1A or IL1R1 and housekeeping gene GAPDH to quantify downregulation of each gene by each guide. Gene downregulation was quantified using the ΔΔCt method to characterize fold change relative non-target gRNA expressing cells.

[3] = system: NF-κB activity in HEK293T cells; assay: NF-κB activity assay in HEK293T cells dosed with TNF-α; assay type: cell-based, human
Description: HEK293T cells and hADMSCs were transduced with the earlier mentioned NF-κB reporter vector and analyzed for changes in NF-κB activity in response to dosing cells with TNF-α/IL-1β (RnD systems, ProSpec). To further describe, cells expressing the NF-κB reporter were plated in white 96-well plates (HEK293T cells at 25,000 cells/well and hADMSCs at 5000 cells/well) and allowed to attach overnight. The next day cells were dosed with the appropriate amounts of inflammatory cytokines (0, […], 1, and/or 10 ng/mL of TNF-α/IL-1β) for 24 hours. At 24 hours luminescence corresponding to NF-κB activity was measured in one set of cells using the bright glo assay (Promega) and cell number was measured on another set of cells under the same treatment using the real-time glo assay (Promega). Changes in NF-κB activity were quantified as a fold change in luminescence relative to the no dose control for each cell type, with NF-κB activity normalized to cell number.

[4] = system: IL1R1; assay: Guide RNA screening in HEK293T cells (qPCR), IL1R1; assay type: cell-based, human; conditions: HEK293T cells expressing dCas9-KRAB, 48 hours post transfection, relative to non-target gRNA
Excerpt: as §1, §2, §3

[5] = biological target: AKAP 150 (rat) (UniProt P24587); assay: cell-based or functional assay
Sequence of UniProt P24587 (P24587 whole entry): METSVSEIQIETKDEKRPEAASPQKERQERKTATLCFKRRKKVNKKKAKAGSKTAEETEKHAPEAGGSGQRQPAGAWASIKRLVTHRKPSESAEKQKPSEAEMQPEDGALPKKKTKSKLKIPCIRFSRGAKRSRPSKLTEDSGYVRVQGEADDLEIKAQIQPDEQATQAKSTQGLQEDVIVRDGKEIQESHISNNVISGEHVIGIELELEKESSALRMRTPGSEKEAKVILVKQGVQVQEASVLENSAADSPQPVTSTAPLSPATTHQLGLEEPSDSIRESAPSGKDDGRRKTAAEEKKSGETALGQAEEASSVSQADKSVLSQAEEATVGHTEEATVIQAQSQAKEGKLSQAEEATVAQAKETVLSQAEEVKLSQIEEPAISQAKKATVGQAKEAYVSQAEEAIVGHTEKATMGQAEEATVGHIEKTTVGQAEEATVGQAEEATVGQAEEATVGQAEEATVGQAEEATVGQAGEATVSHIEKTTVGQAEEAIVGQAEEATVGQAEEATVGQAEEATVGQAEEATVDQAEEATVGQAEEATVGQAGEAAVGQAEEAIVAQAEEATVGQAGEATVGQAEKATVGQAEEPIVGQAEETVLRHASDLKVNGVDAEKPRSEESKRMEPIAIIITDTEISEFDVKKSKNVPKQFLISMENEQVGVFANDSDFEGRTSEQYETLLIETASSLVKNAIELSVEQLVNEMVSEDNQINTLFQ

[6] = biological target: human IL-6 (human) (UniProt P05231); assay: cell-based or functional assay
Sequence of UniProt P05231 (P05231 30-212 limits assumed): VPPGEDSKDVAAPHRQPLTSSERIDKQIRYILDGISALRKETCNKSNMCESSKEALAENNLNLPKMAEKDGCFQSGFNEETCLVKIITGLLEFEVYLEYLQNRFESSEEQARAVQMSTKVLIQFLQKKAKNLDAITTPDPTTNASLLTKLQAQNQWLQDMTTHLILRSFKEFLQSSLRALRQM

Q: For “5′-AUAAGCGUCCGACACAUGAU-3′ (expressed or natural sequence) [gRNA 4 for TNFR1, 82]”, which “TNFR1 knockdown in NP cells” value ([1]; with dCas9-KRAB) is on record?
A: 55%

Q: What about the “TNFR1 knockdown in NP cells” value ([1]; with dCas9 alone) of the same substance?
A: no knockdown

Q: Which results are given for “5′-CAGUGUUGCAACAGCGGGAC-3′ (expressed or natural sequence) [gRNA 1 for TNFR1, 79]”?
A: TNFR1 gene downregulation [2]: up to 87%; NF-κB activity at lowest dose ([3]; 0.15 ng/mL TNF-α): no significant increase in NF-κB activity; decreases in NF-κB activity ([3]; 24 hours of dosing with 0, 0.15, 1, and 10 ng/mL TNF-α): up to 95%

Q: Which IL1R1 gene downregulation [4] does the source give for “5′-GGAGUCGCCAACUCAAUUCG-3′ (expressed or natural sequence) [gRNA 1 for IL1R1, 84]” here?
A: 67%

Q: How did the percentage of neurons firing at 39° C. in degenerative IVD conditioned media [5] turn out when “AKAP inhibitor peptide St-Ht31 (Promega)” was run?
A: 15.5%

Q: control peptide St-Ht31P (Promega) was tested. Which percentage of neurons firing at 39° C. in degenerative IVD conditioned media [5] did it give?
A: 61.9%

Q: “mouse isotype control antibody (Life Technologies)” was tested. Which T50 of neuron firing (Boltzmann fit) [6] did it give?
A: 38.2 ° C.

Q: And the maximum firing response of DRG neurons [6]?
A: 66%
